# Measured values from patent US8124780B2, “Benzimidazole compound” (priority 2005, dated 2012).
# Structures can show the parent of a compound that is named as a salt. Where two headings read alike, the source gives them in different places.
# Tested on: gastric acid secretion
# Assay: animal or person
# Type: in vivo, dog
# Settings: for inhibition in vivo at 0.4 mg/kg / inhibition in vivo at 0.8 mg/kg / inhibition in vivo at 0.2 mg/kg / inhibition in vivo at 1.6 mg/kg / inhibition in vivo at 0.1 mg/kg: Canis lupus familiaris; for inhibition in vivo at 0.1 mg/kg: dose 0.1 mg/kg i.d.
# [1] = iv, 24 h, read-out: Persistency of inhibitory effect against gastric acid secretion (%)
# [2] = iv, read-out: Inhibitory effect against gastric acid secretion (%)
# [3] = dose 0.4 mg/kg i.d., first day, 1 h 40 min to 2 h after administration, histamine i.v., 0.4 mg/kg
# [4] = dose 0.4 mg/kg i.d., second day, 24 hours after administration, histamine i.v., 0.4 mg/kg
SMILES,inhibition in vivo at 0.8 mg/kg [1] [%],inhibition in vivo at 0.8 mg/kg [2] [%],inhibition in vivo at 1.6 mg/kg [1] [%],inhibition in vivo at 1.6 mg/kg [2] [%],further results
"Cc1c(OCC2OCC(C)(C)CO2)ccnc1C[S+]([O-])c1nc2ccccc2[nH]1 (stereo not drawn) [Example 1, 2-(((4-((5,5-dimethyl-1,3-dioxan-2-yl)methoxy)-3-methylpyridin-2-yl)methyl)sulfinyl)-1H-benzimidazole sodium salt]",90,100,–,–,inhibition in vivo at 0.4 mg/kg [1]: 76%; inhibition in vivo at 0.4 mg/kg [2]: 94%
"Cc1c(OCC2OCC3(CC3)CO2)ccnc1C[S+]([O-])c1nc2ccccc2[nH]1 (stereo not drawn) [Example 2, 2-(((4-(5,7-dioxaspiro[2.5]oct-6-ylmethoxy)-3-methylpyridin-2-yl)methyl)sulfinyl)-1H-benzimidazole sodium salt]",96,100,–,–,inhibition in vivo at 0.2 mg/kg [1]: 52%; inhibition in vivo at 0.4 mg/kg [1]: 90%; inhibition in vivo at 0.2 mg/kg [2]: 83%; inhibition in vivo at 0.4 mg/kg [2]: 100%
"CCCC1(CCOc2ccnc(C[S+]([O-])c3nc4ccccc4[nH]3)c2C)OCCO1 (stereo not drawn) [Example 3, 2-(((3-methyl-4-(2-(2-propyl-1,3-dioxolan-2-yl)ethoxy)pyridin-2-yl)methyl)sulfinyl)-1H-benzimidazole sodium salt]",86,100,–,–,–
"CCC1(CCOc2ccnc(C[S+]([O-])c3nc4ccccc4[nH]3)c2C)OCC2(CO1)OCCO2 (stereo not drawn) [Example 4, 2-(((4-(2-(8-ethyl-1,4,7,9-tetraoxaspiro[4.5]dec-8-yl)ethoxy)-3-methylpyridin-2-yl)methyl)sulfinyl)-1H-benzimidazole sodium salt]",93,100,–,–,–
"Cc1c(OCC2(C)OCC3(CO2)OCCO3)ccnc1C[S+]([O-])c1nc2ccccc2[nH]1 (stereo not drawn) [Example 5, 2-(((3-methyl-4-((8-methyl-1,4,7,9-tetraoxaspiro[4.5]dec-8-yl)methoxy)pyridin-2-yl)methyl)sulfinyl)-1H-benzimidazole sodium salt]",89,100,–,–,inhibition in vivo at 0.4 mg/kg [1]: 61%; inhibition in vivo at 0.4 mg/kg [2]: 54%
"COC1OCC(COc2ccnc(C[S+]([O-])c3nc4ccccc4[nH]3)c2C)CO1 (stereo not drawn) [Example 6, 2-(((4-((2-methoxy-1,3-dioxan-5-yl)methoxy)-3-methylpyridin-2-yl)methyl)sulfinyl)-1H-benzimidazole sodium salt]",89,100,–,–,–
"Cc1c(OCC2COC(CF)(CF)OC2)ccnc1C[S+]([O-])c1nc2ccccc2[nH]1 (stereo not drawn) [Example 7, 2-(((4-((2,2-bis(fluoromethyl)-1,3-dioxan-5-yl)methoxy)-3-methylpyridin-2-yl)methyl)sulfinyl)-1H-benzimidazole sodium salt]",90,99,–,–,–
"CCCC1(CCOc2ccnc(C[S+]([O-])c3nc4ccccc4[nH]3)c2C)OCCCO1 (stereo not drawn) [Example 8, 2-(((3-methyl-4-(2-(2-propyl-1,3-dioxan-2-yl)ethoxy)pyridin-2-yl)methyl)sulfinyl)-1H-benzimidazole sodium salt]",88,100,–,–,–
"Cc1c(OC2COC3(CCC3)OC2)ccnc1C[S+]([O-])c1nc2ccccc2[nH]1 (stereo not drawn) [Example 9, 2-(((4-(5,9-dioxaspiro[3.5]non-7-yloxy)-3-methylpyridin-2-yl)methyl)sulfinyl)-1H-benzimidazole sodium salt]",90,100,–,–,–
"Cc1c(OCC2COC3(CCOCC3)OC2)ccnc1C[S+]([O-])c1nc2ccccc2[nH]1 (stereo not drawn) [Example 10, 2-(((3-methyl-4-(1,5,9-trioxaspiro[5.5]undec-3-ylmethoxy)pyridin-2-yl)methyl)sulfinyl)-1H-benzimidazole sodium salt]",90,98,87,100,–
"Cc1cnc(C[S+]([O-])c2nc3ccccc3[nH]2)c(C)c1OCC1COC(C)(C)OC1 (stereo not drawn) [Example 11, 2-(((4-((2,2-dimethyl-1,3-dioxan-5-yl)methoxy)-3,5-dimethylpyridin-2-yl)methyl)sulfinyl)-1H-benzimidazole sodium salt]",89,100,–,–,inhibition in vivo at 0.4 mg/kg [1]: 65%; inhibition in vivo at 0.4 mg/kg [2]: 79%
"Cc1c(OCC2COC(C)(C)OC2)ccnc1C[S+]([O-])c1nc2ccccc2[nH]1 (stereo not drawn) [Example 12, 2-(((4-((2,2-dimethyl-1,3-dioxan-5-yl)methoxy)-3-methylpyridin-2-yl)methyl)sulfinyl)-1H-benzimidazole sodium salt]",86,100,–,–,–
"Cc1cnc(C[S+]([O-])c2nc3ccccc3[nH]2)c(C)c1OCC1COC2(CCC2)OC1 (stereo not drawn) [Example 13, 2-(((4-(5,9-dioxaspiro[3.5]non-7-ylmethoxy)-3,5-dimethylpyridin-2-yl)methyl)sulfinyl)-1H-benzimidazole sodium salt]",74,100,–,–,–
"Cc1cnc(C[S+]([O-])c2nc3ccccc3[n-]2)c(C)c1OCC1COC(C)(C)OC1.[Na+] (stereo not drawn) [Example 19, Sodium salt of an optical isomer (long in retention time) of 2-(((4-((2,2-dimethyl-1,3-dioxan-5-yl)methoxy)-3,5-dimethylpyridin-2-yl)methyl)sulfinyl)-1H-benzimidazole]",–,–,–,–,"inhibition in vivo at 0.8 mg/kg (i.d., dose 0.8 mg/kg i.d., first day, 1 h 40 min to 2 h after administration, histamine i.v., read-out: Inhibitory effect against gastric acid secretion (%)): 82%; Inhibitory effect against gastric acid secretion (%) [3]: 13%; Persistency of inhibitory effect against gastric acid secretion (%) [4]: −4%; Persistency of inhibitory effect against gastric acid secretion (%) (dose 0.8 mg/kg i.d., second day, 24 hours after administration, histamine i.v.): 56%"
"Cc1cnc(C[S+]([O-])c2nc3ccccc3[n-]2)c(C)c1OCC1COC(C)(C)OC1.[Na+] (stereo not drawn) [Example 20, Sodium salt of an optical isomer (short in retention time) of 2-(((4-(2,2-dimethyl-1,3-dioxan-5-yl)methoxy-3,5-dimethylpyridin-2-yl)methyl)sulfinyl)-1H-benzimidazole]",–,–,–,–,"inhibition in vivo at 0.1 mg/kg (i.d., 24 h, second day, 24 hours after administration, histamine i.v., read-out: Persistency of inhibitory effect against gastric acid secretion (%)): 6%; inhibition in vivo at 0.2 mg/kg (i.d., 24 h, dose 0.2 mg/kg i.d., second day, 24 hours after administration, histamine i.v., read-out: Persistency of inhibitory effect against gastric acid secretion (%)): 46%; inhibition in vivo at 0.1 mg/kg (i.d., first day, 1 h 40 min to 2 h after administration, histamine i.v., read-out: Inhibitory effect against gastric acid secretion (%)): 8%; inhibition in vivo at 0.2 mg/kg (i.d., dose 0.2 mg/kg i.d., first day, 1 h 40 min to 2 h after administration, histamine i.v., read-out: Inhibitory effect against gastric acid secretion (%)): 65%; Inhibitory effect against gastric acid secretion (%) [3]: 97%; Persistency of inhibitory effect against gastric acid secretion (%) [4]: 77%; Inhibitory effect against gastric acid secretion (%) (dose 0.8 mg/kg i.d., first day, 1 h 40 min to 2 h after administration, histamine i.v., 0.8 mg/kg): 100%; Persistency of inhibitory effect against gastric acid secretion (%) (dose 0.8 mg/kg i.d., second day, 24 hours after administration, histamine i.v., 0.8 mg/kg): 89%"
"Cc1c(OCC2COC3(CCCC3)OC2)ccnc1C[S+]([O-])c1nc2ccccc2[nH]1 (stereo not drawn) [Example 21, 2-(((4-(6,10-dioxaspiro[4.5]dec-8-ylmethoxy)-3-methylpyridin-2-yl)methyl)sulfinyl)-1H-benzimidazole sodium salt]",–,–,94,100,–
"Cc1c(OCC2COC3(CCC3)OC2)ccnc1C[S+]([O-])c1nc2ccccc2[nH]1 (stereo not drawn) [Example 22, 2-(((4-(5,9-dioxaspiro[3.5]non-7-ylmethoxy)-3-methylpyridin-2-yl)methyl)sulfinyl)-1H-benzimidazole sodium salt]",–,–,97,100,–
"CCC1(CC)OCC(COc2ccnc(C[S+]([O-])c3nc4ccccc4[nH]3)c2C)CO1 (stereo not drawn) [Example 23, 2-(((4-((2,2-diethyl-1,3-dioxan-5-yl)methoxy)-3-methylpyridin-2-yl)methyl)sulfinyl)-1H-benzimidazole sodium salt]",–,–,92,100,–
"Cc1c(OCC23COC(C)(OC2)OC3)ccnc1C[S+]([O-])c1nc2ccccc2[n-]1.[Na+] (stereo not drawn) [Example 24, 2-(((3-methyl-4-((1-methyl-2,6,7-trioxabicyclo[2.2.2]oct-4-yl)methoxy)pyridin-2-yl)methyl)sulfinyl)-1H-benzimidazole sodium salt]",–,–,–,–,"Inhibitory effect against gastric acid secretion (%) (dog, in vivo, iv, 1.6 mg/kg): 88%; Persistency of inhibitory effect against gastric acid secretion (%) (dog, in vivo, iv, 1.6 mg/kg): 80%"
"Cc1c(OC2COC(C)(C)OC2)ccnc1C[S+]([O-])c1nc2ccccc2[nH]1 (stereo not drawn) [Example 26, 2-(((4-((2,2-dimethyl-1,3-dioxan-5-yl)oxy)-3-methylpyridin-2-yl)methyl)sulfinyl)-1H-benzimidazole sodium salt]",–,–,80,100,–
"Cc1c(OC2CCC3(CC2)OCCO3)ccnc1C[S+]([O-])c1nc2ccccc2[nH]1 (stereo not drawn) [Example 27, 2-(((4-(1,4-dioxaspiro[4.5]dec-8-yloxy)-3-methylpyridin-2-yl)methyl)sulfinyl)-1H-benzimidazole sodium salt]",–,–,92,100,–
"Cc1c(OCCC2COC(C)(C)OC2)ccnc1C[S+]([O-])c1nc2ccccc2[nH]1 (stereo not drawn) [Example 28, 2-(((4-(2-(2,2-dimethyl-1,3-dioxan-5-yl)ethoxy)-3-methylpyridin-2-yl)methyl)sulfinyl)-1H-benzimidazole sodium salt]",–,–,77,94,–
"CCC12OCC(COc3ccnc(C[S+]([O-])c4nc5ccccc5[n-]4)c3C)(CO1)CO2.[Na+] (stereo not drawn) [Example 29, 2-(((4-((1-ethyl-2,6,7-trioxabicyclo[2.2.2]oct-4-yl)methoxy)-3-methylpyridin-2-yl)methyl)sulfinyl)-1H-benzimidazole sodium salt]",–,–,–,–,"Inhibitory effect against gastric acid secretion (%) (dog, in vivo, iv, 1.6 mg/kg): 100%; Persistency of inhibitory effect against gastric acid secretion (%) (dog, in vivo, iv, 1.6 mg/kg): 87%"
